Assays:
A549 = experiment: Cytotoxicity against human A549 cells; format: functional; details: read-out: ED50 (the source's name)
MCF7 = experiment: Cytotoxicity against human MCF7 cells; format: functional; details: read-out: ED50 (the source's name)
HT-29 = experiment: Cytotoxicity against human HT-29 cells; format: functional; details: read-out: ED50 (the source's name)
Artemia = experiment: Toxicity in brine shrimp; format: organism-based; details: in vivo

With CCCCCCCCCCCCCCCC(=O)O[C@H]1CC[C@]2(C)[C@H]3CC=C4[C@@H]5CC(C)(C)CC[C@]5(CO)[C@@H](O)C[C@@]4(C)[C@]3(C)CC[C@H]2C1(C)C the EC50 (A549) was greater than 10 µg/mL, the EC50 (MCF7) was greater than 10 µg/mL and the EC50 (HT-29) was greater than 10 µg/mL. The LC50 (Artemia) was greater than 1000 ppm.
